From ChEMBL document CHEMBL3856234, “Development of Multifunctional Pyrimidinylthiourea Derivatives as Potential Anti-Alzheimer Agents” (J Med Chem, 2016)
Active and inactive are the calls of the source. The rule behind the calls is not given here.

Columns and labels:
[1] = Solubility of the compound in water measured after 24 hrs by HPLC analysis; format: physicochemical
[2] = Plasma concentration in ICR mouse at 200 mg/kg administered through oral gavage measured after 1 hr by LC-MS/MS analysis; format: ADME, organism-based
[3] = Drug uptake in ICR mouse brain cortex at 200 mg/kg administered through oral gavage measured after 1 hr by LC-MS/MS analysis; format: ADME, organism-based; details: read-out: Drug uptake
[4] = Drug uptake in ICR mouse brain hippocampus at 200 mg/kg administered through oral gavage measured after 1 hr by LC-MS/MS analysis; format: ADME, organism-based; details: read-out: Drug uptake
[5] = Ratio of drug level in brain cortex to plasma in ICR mouse at 200 mg/kg administered through oral gavage; format: ADME, organism-based; details: read-out: logBB (converted)
[6] = Ratio of drug level in brain hippocampus to plasma in ICR mouse at 200 mg/kg administered through oral gavage; format: ADME, organism-based; details: read-out: logBB (converted)
Rattus norvegicus [7] = species on record: Rattus norvegicus; assay: Inhibition of rat serum BuChE at 40 uM using butyrylthiocholine as substrate measured after 20 mins by Ellman's method relative to control
Rattus norvegicus [8] = species on record: Rattus norvegicus; assay: Selectivity index, ratio of IC50 for rat serum BuChE to IC50 for rat cortex AChE
[9] = Antioxidant activity assessed as trolox equivalent of AAPH radical scavenging activity preincubated for 10 mins followed by AAPH challenge measured every min for 180 mins by ORAC-FL assay; format: functional
[10] = Inhibition of cupric ion-induced aggregation of amyloid beta (1 to 42) (unknown origin) at compound:amyloid beta (1 to 42):Cu2+ ratio of 2:1:1 measured after 24 hrs by TEM analysis
SH-SY5Y = assay: Neuroprotective activity in human SH-SY5Y cells assessed as protection against Cu2+ induced amyloid-beta (1 to 42) neurotoxicity by measuring increase in cell viability at compound:amyloid-beta (1 to 42):Cu2+ ratio of 2:1:1 after 24 hrs by MTT assay relative to control; format: functional, cell-based
Mus musculus [11] = assay: Cognitive enhancing effect against scopolamine-induced memory deficit in ICR mouse assessed as reduction in escape latency at 200 mg/kg, po administered through gavage 1 hr before scopolamine-challenge measured after 20 mins by passageway water maze test; format: functional, organism-based
Mus musculus [12] = assay: Cognitive enhancing effect against scopolamine-induced memory deficit in ICR mouse assessed as reduction in number of errors at 200 mg/kg, po administered through gavage 1 hr before scopolamine-challenge measured after 20 mins by passageway water maze test; format: functional, organism-based
[13] = Antioxidant activity assessed as inhibition of Cu2+-induced CCA […] to 7-hydroxy-CCA by measuring decrease in hydroxyl radical production at 10 uM in presence of ascorbate by fluorescence assay
[14] = Inhibition of cupric ion-induced aggregation of amyloid beta (1 to 42) (unknown origin) at 50 uM measured after 24 hrs by dot blot assay

Compound	solubility at 24 h [1] [µg/mL]	concentration at 1 h [2] [ng/mL]	concentration at 1 h [3] [ng/g]	concentration at 1 h [4] [ng/g]	Kp [5]	Kp [6]	inhibition (Rattus norvegicus [7]) [%]	Ratio IC50 (Rattus norvegicus [8])	Activity (umolequiv/umol) [9]	inhibition [10]	Activity (SH-SY5Y)	Activity (Mus musculus [11])	Activity (Mus musculus [12])	inhibition [13]	inhibition [14]
CCCN(CCC)Cc1cn(-c2cc(NC(=S)NCC)ncn2)cn1.Cl	3380	1740	296	579	0.141	0.324	–	–	–	–	–	–	–	–	–
CCCN(CCC)Cc1cn(-c2cc(NC(=S)NCC)ncn2)cn1	–	–	–	–	–	–	32.8	> 196	1.28	Active	Active	Active	Active	Active	Active
